51 compounds from US8143288B2, “Inhibitors of HCV replication” (priority 2005, dated 2012) can be followed below.

A word on the EC50: it is the concentration needed to bring the measured effect to its halfway point.

Each structure is given as a SMILES string.

The subject of the assay is HCV 1b-377-neo replicon cells. Put plainly: HCV replicon FRET assay. It counts as cell-based. As to conditions: Hepatitis C virus; HCV replicon; read-out: Activity (EC50). (Replicon systems follow genome replication, usually without infectious particles.)
On to `COc1ccc(Cl)cc1C(=O)N1CCC[C@H]1C(=O)Nc1ccc(/C=C/c2ccc(NC(=O)[C@@H]3CCCN3C(=O)c3cc(Cl)ccc3OC)cc2)cc1` [Example 138], for which the EC50 lay within 1000 to 10000 nM. The same measure for `O=C(Nc1ccc(/C=C/c2ccc(NC(=O)[C@@H]3CCCN3C(=O)Cc3ccccc3)cc2)cc1)C1CC1` [Example 292]: 100 to 1000 nM; for `O=C(Nc1ccc(/C=C/c2ccc(NC(=O)[C@@H]3CCCN3C(=O)N3CCOCC3)cc2)cc1)[C@@H]1CCCN1C(=O)N1CCOCC1` [Example 287]: 0.1 to 90 nM. The same measure for `Cn1cc(C(=O)N2CCC[C@H]2C(=O)Nc2ccc(/C=C/c3ccc(NC(=O)[C@@H]4CCCN4C(=O)c4cn(C)c5ccccc45)cc3)cc2)c2ccccc21` [Example 207]: 100 to 1000 nM; for `Cc1nc(C(F)(F)F)ccc1C(=O)N1CCC[C@H]1C(=O)Nc1ccc(/C=C/c2ccc(NC(=O)[C@@H]3CCCN3C(=O)c3ccc(C(F)(F)F)nc3C)cc2)cc1` [Example 194]: 100 to 1000 nM; for `CCC(=O)N1CCC[C@H]1C(=O)Nc1ccc(/C=C/c2ccc(NC(=O)[C@@H]3CCCN3C(=O)CC)cc2)cc1` [Example 46]: 100 to 1000 nM. For `O=C(Nc1ccc(/C=C/c2ccc(NC(=O)[C@@H]3CCCN3C(=O)Cc3ccccc3)cc2)cc1)c1ccccc1Oc1ccccc1` [Example 266], the EC50 was in the range of 1000 to 10000 nM.

As to `CCn1nc(C)cc1C(=O)N1CCC[C@H]1C(=O)Nc1ccc(/C=C/c2ccc(NC(=O)[C@@H]3CCCN3C(=O)c3cc(C)nn3CC)cc2)cc1` [Example 155], the concentration giving a half-maximal response (EC50) is 0.1 to 90 nM. Regarding `O=C(Cc1ccccc1)NCC(=O)Nc1ccc(/C=C/c2ccc(NC(=O)[C@@H]3CCCN3C(=O)Cc3ccccc3)cc2)cc1` [Example 257], the half-maximal effective concentration (EC50) lay within 100 to 1000 nM.

`Cc1ccsc1C(=O)N1CCC[C@H]1C(=O)Nc1ccc(/C=C/c2ccc(NC(=O)[C@@H]3CCCN3C(=O)c3sccc3C)cc2)cc1` [Example 198]: the concentration for a half-maximal effect (EC50) was in the range of 100 to 1000 nM. Take `O=C(Nc1ccc(/C=C/c2ccc(NC(=O)[C@@H]3CCCN3C(=O)c3ccncc3)cc2)cc1)[C@@H]1CCCN1C(=O)c1ccncc1` [Example 58]: the half-maximal effective concentration (EC50) lay within 0.1 to 90 nM. For `O=C(Cc1ccccc1)C1C[C@H](O)C[C@H]1C(=O)Nc1ccc(/C=C/c2ccc(NC(=O)[C@@H]3C[C@@H](O)CN3C(=O)Cc3ccccc3)cc2)cc1` (stereo partly drawn) [Example 291] the value was 0.1 to 90 nM. Take `CN1CCC[C@H]1C(=O)N1CCC[C@H]1C(=O)Nc1ccc(/C=C/c2ccc(NC(=O)[C@@H]3CCCN3C(=O)[C@@H]3CCCN3C)cc2)cc1` [Example 157]: the concentration giving a half-maximal response (EC50) lay in the range of 1000 to 10000 nM. The same measure for `O=C(Nc1ccc(/C=C/c2ccc(NC(=O)[C@@H]3CCCN3C(=O)c3ccccn3)cc2)cc1)[C@@H]1CCCN1C(=O)c1ccccn1` [Example 176]: 1000 to 10000 nM. For `Cc1cccc(-c2cccnc2C(=O)N2CCC[C@H]2C(=O)Nc2ccc(/C=C/c3ccc(NC(=O)[C@@H]4CCCN4C(=O)c4ncccc4-c4cccc(C)c4)cc3)cc2)c1` [Example 233] the value was 1000 to 10000 nM; for `O=C(Nc1ccc(/C=C/c2ccc(NC(=O)[C@@H]3CCCN3C(=O)[C@@H]3CCCO3)cc2)cc1)[C@@H]1CCCN1C(=O)[C@@H]1CCCO1` [Example 111], 100 to 1000 nM; for `O=C(Nc1ccc(/C=C/c2ccc(NC(=O)[C@@H]3CCCN3C(=O)c3cnccn3)cc2)cc1)[C@@H]1CCCN1C(=O)c1cnccn1` [Example 178], 1000 to 10000 nM. For `O=C(Nc1ccc(/C=C/c2ccc(NC(=O)[C@@H]3CCCN3C(=O)c3cccnc3Cl)cc2)cc1)[C@@H]1CCCN1C(=O)c1cccnc1Cl` [Example 191] the value was 1000 to 10000 nM; for `O=C(Nc1ccc(/C=C/c2ccc(NC(=O)[C@@H]3CCCN3C(=O)Cc3ccccc3)cc2)cc1)[C@@H]1CCCN1` [Example 252], 1000 to 10000 nM.

As to `O=C(Nc1ccc(/C=C/c2ccc(NC(=O)[C@@H]3CCCN3C(=O)C3CCC3)cc2)cc1)[C@@H]1CCCN1C(=O)c1ccccn1` [Example 85], the EC50 was 0.1 to 90 nM.

Consider `O=C(Nc1ccc(/C=C\c2ccc(NC(=O)[C@@H]3CCCN3C(=O)Cc3ccccc3)cc2)cc1)[C@@H]1CCCN1C(=O)Cc1ccccc1` [Example 5], for which the EC50 was in the range of 0.1 to 90 nM. The same measure for `Cc1cc(/C=C/c2ccc(NC(=O)[C@@H]3CCCN3C(=O)Cc3ccccc3)c(C)c2)ccc1NC(=O)[C@@H]1CCCN1C(=O)Cc1ccccc1` [Example 277]: 0.1 to 90 nM; for `CCCOc1ccccc1C(=O)N1C[C@@H](N(C)C)C[C@H]1C(=O)Nc1ccc(CCc2ccc(NC(=O)[C@@H]3C[C@H](N(C)C)CN3C(=O)c3ccccc3OCCC)cc2)cc1` [Example 224]: 1000 to 10000 nM. The same measure for `CC(=O)N1C[C@H](O)C[C@H]1C(=O)Nc1ccc(/C=C/c2ccc(NC(=O)[C@@H]3CCCN3C(=O)Cc3ccccc3)cc2)cc1` [Example 272]: 100 to 1000 nM. The same measure for `COc1ccccc1C(=O)N1CCC[C@H]1C(=O)Nc1ccc(/C=C/c2ccc(NC(=O)[C@@H]3CCCN3C(=O)Cc3cccnc3)cc2)cc1` [Example 142]: 100 to 1000 nM; for `CSCC(=O)N1CCC[C@H]1C(=O)Nc1ccc(/C=C/c2ccc(NC(=O)[C@@H]3CCCN3C(=O)c3ccccn3)cc2)cc1` [Example 84]: 0.1 to 90 nM; for `COCC(=O)N1CCC[C@H]1C(=O)Nc1ccc(/C=C/c2ccc(NC(=O)[C@@H]3CCCN3C(=O)c3cccnc3)cc2)cc1` [Example 87]: 0.1 to 90 nM. Turning to `O=C(Nc1ccc(/C=C/c2ccc(NC(=O)[C@@H]3C[C@H](O)CN3C(=O)OCc3ccccc3)cc2)cc1)[C@@H]1C[C@H](O)CN1C(=O)OCc1ccccc1` [Example 7], the half-maximal effective concentration (EC50) lay within 0.1 to 90 nM.

`O=C1N[C@H]2[C@H](CS[C@H]2CCCCC(=O)N2CCC[C@H]2C(=O)Nc2ccc(/C=C/c3ccc(NC(=O)[C@@H]4CCCN4C(=O)Cc4ccccc4)cc3)cc2)N1` [Example 109]: the concentration giving a half-maximal response (EC50) was in the range of 0.1 to 90 nM. `CC(C)CC(=O)N1CCC[C@H]1C(=O)Nc1ccc(/C=C/c2ccc(NC(=O)[C@@H]3CCCN3C(=O)CC(C)C)cc2)cc1` [Example 40]: the half-maximal effective concentration (EC50) fell in the range of 100 to 1000 nM.

For `O=C(Nc1ccc(/C=C/c2ccc(NC(=O)[C@@H]3CCCN3C(=O)[C@H]3CCCO3)cc2)cc1)[C@H]1CCCO1` [Example 263], the EC50 lay in the range of 1000 to 10000 nM. Regarding `CC(C)(C)NC(=O)O[C@@H]1C[C@@H](C(=O)Nc2ccc(/C=C/c3ccc(NC(=O)[C@@H]4C[C@@H](O)CN4C(=O)OCc4ccccc4)cc3)cc2)N(C(=O)OCc2ccccc2)C1` [Example 247], the concentration giving a half-maximal response (EC50) fell in the range of 1000 to 10000 nM.

On to `O=C(NCc1ccccc1)Nc1ccc(/C=C/c2ccc(NC(=O)[C@@H]3CCCN3C(=O)Cc3ccccc3)cc2)cc1` [Example 250C], for which the half-maximal effective concentration (EC50) fell in the range of 1000 to 10000 nM. Turning to `O=C(Nc1ccc(/C=C/c2ccc(NC(=O)[C@@H]3CCCN3C(=O)c3ccccc3C3=CCCC3)cc2)cc1)[C@@H]1CCCN1C(=O)c1ccccc1C1=CCCC1` [Example 237], the EC50 was in the range of 1000 to 10000 nM. The same measure for `CC(=O)N1CCC[C@H]1C(=O)Nc1ccc(/C=C/c2ccc(NC(=O)[C@@H]3CCCN3C(=O)Cc3ccccn3)cc2)cc1` [Example 49]: 0.1 to 90 nM; for `N#CC1(C(=O)N2CCC[C@H]2C(=O)Nc2ccc(/C=C/c3ccc(NC(=O)[C@@H]4CCCN4C(=O)C4(C#N)CC4)cc3)cc2)CC1` [Example 66]: 0.1 to 90 nM; for `O=C(Nc1ccc(/C=C/c2ccc(NC(=O)C3CC(=O)N(CCc4cccs4)C3)cc2)cc1)C1CC(=O)N(CCc2cccs2)C1` (stereo not drawn) [Example 14]: 1000 to 10000 nM. `CCCOc1ccccc1C(=O)N1C[C@@H](N(C)C)C[C@H]1C(=O)Nc1ccc(/C=C/c2ccc(NC(=O)[C@@H]3C[C@H](N(C)C)CN3C(=O)c3ccccc3OCCC)cc2)cc1` [Example 227]: the 50% effective concentration (EC50) lay within 1000 to 10000 nM. The same measure for `CC(C)(C)OC(=O)NC1(C(=O)N2CCC[C@H]2C(=O)Nc2ccc(/C=C/c3ccc(NC(=O)[C@@H]4CCCN4C(=O)C4(NC(=O)OC(C)(C)C)CC4)cc3)cc2)CC1` [Example 55]: 100 to 1000 nM; for `CCc1cccc(C)c1C(=O)N1CCC[C@H]1C(=O)Nc1ccc(/C=C/c2ccc(NC(=O)[C@@H]3CCCN3C(=O)c3c(C)cccc3CC)cc2)cc1` [Example 206]: 1000 to 10000 nM; for `CC(C)(C)O[C@@H]1C[C@@H](C(=O)Nc2ccc(/C=C/c3ccc(NC(=O)[C@@H]4C[C@@H](OC(C)(C)C)CN4C(=O)Cc4ccccc4)cc3)cc2)N(C(=O)Cc2ccccc2)C1` [Example 295]: 1000 to 10000 nM.

On to `CN(C)[C@H]1C[C@@H](C(=O)Nc2ccc(/C=C/c3ccc(NC(=O)[C@@H]4C[C@H](N(C)C)CN4C(=O)OCc4ccccc4)cc3)cc2)N(C(=O)OCc2ccccc2)C1` [Example 223], for which the EC50 is 0.1 to 90 nM. As for `O=C(Nc1ccc(/C=C/c2ccc(NC(=O)[C@@H]3CCCN3C(=O)c3cccnc3)cc2)cc1)[C@@H]1CCCN1C(=O)c1cccnc1` [Example 59], the 50% effective concentration (EC50) is 100 to 1000 nM. For `CCc1ccccc1C(=O)N1CCC[C@@H]1C(=O)Nc1ccc(/C=C/c2ccc(NC(=O)[C@@H]3CCCN3C(=O)c3ccccc3CC)cc2)cc1` [Example 124] the value was 1000 to 10000 nM; for `COc1cccc(C(=O)N2CCC[C@H]2C(=O)Nc2ccc(/C=C/c3ccc(NC(=O)[C@@H]4CCCN4C(=O)c4cccc(OC)c4OC)cc3)cc2)c1OC` [Example 146], 1000 to 10000 nM; for `O=C(Nc1ccc(/C=C/c2ccc(NC(=O)C3CC(=O)N(Cc4cccs4)C3)cc2)cc1)C1CC(=O)N(Cc2cccs2)C1` (stereo not drawn) [Example 13], 1000 to 10000 nM. With `CCO[C@@H]1C[C@@H](C(=O)Nc2ccc(/C=C/c3ccc(NC(=O)[C@@H]4C[C@H](OCC)CN4C(=O)OCc4ccccc4)cc3)cc2)N(C(=O)OCc2ccccc2)C1` [Example 16], the EC50 lay within 1000 to 10000 nM. For `O=C(Nc1ccc(/C=C/c2ccc(NC(=O)[C@@H]3C=CCN3C(=O)Cc3ccccn3)cc2)cc1)[C@@H]1C=CCN1C(=O)Cc1ccccn1` [Example 215] the value was 0.1 to 90 nM; for `Cn1cnc(CC(=O)N2CCC[C@H]2C(=O)Nc2ccc(/C=C/c3ccc(NC(=O)[C@@H]4CCCN4C(=O)Cc4cn(C)cn4)cc3)cc2)c1` [Example 41], 0.1 to 90 nM. As to `O=C(Nc1ccc(/C=C/c2ccc(NC(=O)[C@@H]3CCCN3C(=O)Cc3ccccc3F)cc2)cc1)[C@@H]1CCCN1C(=O)Cc1ccccc1F` [Example 106], the EC50 lay within 0.1 to 90 nM.

Regarding `O=C(Nc1ccc(/C=C/c2ccc(NC(=O)[C@@H]3CCCN3C(=O)c3ccccc3CCc3ccccc3)cc2)cc1)[C@@H]1CCCN1C(=O)c1ccccc1CCc1ccccc1` [Example 169], the half-maximal effective concentration (EC50) was 100 to 1000 nM.
